Data set [1] in a line: Solubility of boronates in room temperature THF (NMR vs internal standard). It counts as physicochemical. How it is done: To determine the solubility of each boronate given in the following table, a concentrated solution was prepared by repeated addition to a small amount (˜200 μL) of room temperature THF in a 7-mL vial until solid no longer dissolved upon stirring. The vials were then allowed to stir at room temperature overnight. […] 100 μL of the mixture was then filtered and had solvent removed. The residue was then taken up in 500 μL DMSO-d6 containing 1,4-dimethoxybenzene (˜0.01 M) as an internal standard and transferred to an NMR tube. The concentrations of the solutions were then determined by integration relative to internal standard. In each case, the measurements are an average of two experiments.

Data set [2] can be described thus: Hydrolysis of MIDA boronate derivatives under slow release conditions (K3PO4, THF-d8/D2O, 60° C., 1H NMR). In kind it is physicochemical. Conditions: for boronate remaining: at 6 hours; for krel, relative rate constant for hydrolysis with respect to MIDA (krel=1): 5:1 THF-d8:D2O, 7.5 eq. K3PO4, 60° C.; for reduction in the rate of hydrolysis: relative to MIDA boronate. How it is done: Compounds 1-6 (FIG. 4A) were prepared and then characterized in terms of their rates of hydrolysis under defined conditions relative to MIDA compound 4. Reaction conditions were: 5:1 THF-d8:D2O, 0.07 M in boronate, 7.5 eq. K3PO4, 60° C. Reactions were stirred for 0.5 to 2.0 h before being cooled and diluted with DMSO-d6 containing 1,4-dimethoxybenzene as an internal standard. ^1H NMR was taken immediately to determine % boronate remaining. For compounds 1, 2, and 3, n=2 and the average between the two runs is represented in the figure.
To each of twelve 1 mL conical vials equipped with stirring vanes was added 100 μL (0.08 M, 0.008 mmol) of a THF-d8 solution of the indicated boronate, followed by 20 μL (3.0 M, 0.06 mmol, 7.5 eq.) of a D2O solution of K3PO4. Each vial was then capped, shaken briefly to mix, and then stirred in a 60° C. heat block at 800 RPM. At the indicated times, two vials were removed from the heat block, cooled briefly under a stream of air, and then had 680 μL DMSO-d6 containing 1,4-dimethoxybenzene (˜0.008 M) as an internal standard added. The vials were then again briefly capped, shaken to mix, and the solutions were then immediately transferred to NMR tubes and spectra were taken (16 scans, d1=10 s). Time points were taken at 0, 0.5, 1, 1.5, 2.0, 4.0, and 6.0 hours. The solutions for the 0 time points were made directly in the NMR tubes, shaken, and then had spectra obtained. The percentage boronate remaining was determined by average the integration of the aryl protons (which fully resolved from the corresponding aryl protons on the parent boronic acid) across the two runs, except in the case of octyl TIDA boronate, for which the terminal methyl group of the octyl chain was used. Relative rate constants were obtained by assuming pseudo-first order kinetics and plotting the natural log of percentage boronate remaining vs time (ie. ln([boronate]/[boronate]o) vs t) (FIG. 13).
Each time point represents the average of n=2 experiments, except in the case of the N-Cy and N-iPr MIDA, for which n=1.

Setting [3] is: slow release hydrolysis conditions.

Take 5-Formyl-2-furanyl TIDA Boronate: in data set [1], the “solubility in THF” value amounted to 212 mM.
Same read-out and setting: the result for `CN1CC(=O)OB(c2ccc(C=O)o2)OC(=O)C1` [5-Formyl-2-furyl MIDA boronate, reference compound] reads “trace”.
In the case of `Cc1ccc([B-]23OC(=O)C(C)(C)[N+]2(C)C(C)(C)C(=O)O3)cc1` (stereo not shown) [p-tolylTIDA boronate, p-Tolyl TIDA Boronate], the “solubility in THF (in words)” value in data set [1] is on record as “lack of solubility”.
For “Octyl TIDA Boronate [octylTIDA boronate]”, the “solubility in THF (in words)” value in data set [1] was “completely soluble”. Also, the “hydrolysis after 6 hours (in words)” value in data set [2] (after 6 hours, slow release hydrolysis conditions) is recorded as “no measurable hydrolysis”.
As to p-Tolyl DibutylMIDA boronate [R=nBu], in data set [2] (setting [3]), the boronate remaining entry was “about 25%”.
Take p-Tolyl DiethylMIDA Boronate: in data set [2], the “krel, relative rate constant for hydrolysis with respect to MIDA (krel=1)” value (“krel, relative rate constant” for short) was found to be 0.12.
Regarding p-Tolyl DimethylMIDA Boronate, in data set [2], the “krel, relative rate constant” value came to 0.08 and the “reduction in the rate of hydrolysis” value is on record as 12.5 fold. The same compound had a boronate remaining in data set [2] (setting [3]) of around 80%. In addition, in data set [2] (free dibutyl ligand or tetrabutylammonium bromide added), the “rate of hydrolysis with added phase transfer catalyst (in words)” value was “hydrolyzed faster than the lone boronate”.
With p-Tolyl SchMIDA Boronate, in data set [2], the “krel, relative rate constant” value stood at 0.092 and the “reduction in the rate of hydrolysis” value stood at 10.9 fold.

The values are drawn from patent US10844081B2, “Protected organoboronic acids with tunable reactivity, and methods of use thereof” (The Board of Trustees of the University of Illinois, priority 2015, dated 2020).
